Test results: US20250179037A1 (Jiangsu Jibeier Pharmaceutical Co., Ltd., priority 2021, published 2025)
Converted amounts (≈) assume the structure as drawn. Marks after values point to notes of the source that are not given here.

Columns and labels:
[1] = test system: mice leukopenia models (peripheral blood leukocytes); assay: Cyclophosphamide-induced mice leukopenia model, leukocyte counts; type: in vivo, male Balb/C mice; details: for Leukocyte Level, End of treatment: 30 mg/kg intragastric once daily for 28 days, Day 29; for Leukocyte Level, End of treatment / Leukocyte Level, Before modeling / Leukocyte Level, After modeling: X ± S; for Leukocyte Level, Before modeling / Leukocyte Level, After modeling: 30 mg/kg intragastric once daily; for Leukocyte Level, Before modeling: Day 7 after drug administration; for Leukocyte Level, After modeling: Day 15, cyclophosphamide 25 mg/kg i.p. Day 8 to Day 14; for effect on leucocyte level compared to the leucogen crystalline form C group / leucocyte levels after treatment, compared to the model control group: 30 mg/kg, after treatment, P<0.05
Method: A total of 100 male Balb/C mice with the body weight ranging from 22 g to 24 g were randomly selected and randomly divided into the following five groups: the normal control group, the model control group, the leucogen crystalline form A group, the leucogen crystalline form B group, and the leucogen crystalline form C group, 20 mice in each group. In the leucogen crystalline forms A, B and C groups, the mice were intragastrically administered with 30 mg/kg once daily for a total of 28 days. In the normal control group and the model control group, the mice were administered with an equal volume of saline once daily for a total of 28 days. In the model control group and the leucogen groups, 25 mg/kg of cyclophosphamide was intraperitoneally injected in the mice at Day 8 to Day 14 respectively to establish mice leukopenia models. Blood samples were collected from the retro-orbital venous sinus of mice before modeling, after modeling, and at the end of drug administration (i.e., Day 7, Day 15, and Day 29 after drug administration) for leukocyte counts, respectively. The experimental data were statistically processed with the SPSS 17.0 software package, and expressed as mean±standard deviation (X±S), where P<0.05 indicated there was a statistical significance.

[2] = TGA/DSC test (thermostability); type: physicochemical; details: for thermostability (compared with crystalline form C): conclusion from TGA/DSC table
From the text: TGA and DSC Test Methods:
TGA and DCS patterns were collected on TA Discovery TGA 5500 thermogravimetric analyzer and TA Discovery DSC 2500 differential scanning calorimeter, respectively.

[3] = Test on saturated solubility in water (HPLC); type: physicochemical; details: for solubility property (compared with crystalline form C): conclusion from water saturation solubility table; for Solubility in 1 h / Solubility in 2 h / Solubility in 18 h: 37° C.
Method: Test on Saturated Solubility in Water:
• Chromatographic column: KromasiL C18 4.6*250 mm, 5 m • Column temperature: 30° C. flow rate: 1.0 mL/min sample size: 20 μL detection wavelength: 210 nm • Mobile phase: acetonitrile-water-glacial acetic acid (42:58:0.3) • Formulation of control solution: 10 mg of leucogen as a control product was precisely weighed, put in a 100-mL measuring flask, dissolved with the mobile phase, and diluted to the scale to afford 100 μg/mL of mother solution, and the mother solution was subjected to 10-fold, 100-fold, and 1000-fold serial dilutions to afford solutions at the concentrations of 10 μg/mL, 1 μg/mL, and 0.1 μg/mL, respectively.
Formulation of test solution: about 20 mg of 211118 batch (crystalline form A) and 211124 batch (crystalline form B) of the leucogen samples were weighed, each for 3 copies, and put in six 10-mL test tubes with stoppers respectively; 10 mL of water was added respectively; the test tubes were oscillated under the conditions of 37° C. and 100 r/min for 1 h, 2 h, and 18 h respectively; the resultants were filtered through 0.45-μm microporous filter membranes, and the filtrates were taken as the test solutions.
The control solution and the test solutions were tested under the above chromatographic conditions, separately. The area of the control solution was linearly regressed with its concentration. The saturated solubility in water was obtained from the peak areas of the test solutions.

[4] = listed as Leucogen crystalline form A
[5] = listed as Leucogen crystalline form B
[6] = water, 100 r/min, oscillated 1 h
[7] = water, 100 r/min, oscillated 2 h
[8] = water, 100 r/min, oscillated 18 h
[9] = listed as Leucogen crystalline form C

## CCOC(=O)C(c1ccccc1)C1N[C@H](C(=O)O)CS1 (some centres unmarked)
[1]; [4]
  Leukocyte Level, End of treatment: 9.23 ± 1.42*^Δ 10^9/L
  Leukocyte Level, Before modeling: 9.92 ± 1.59 10^9/L
  Leukocyte Level, After modeling: 3.31 ± 1.43 10^9/L
[1]
  effect on leucocyte level compared to the leucogen crystalline form C group: better effect
  leucocyte levels after treatment, compared to the model control group: significantly increased
[2]; 100° C.
  TGA Weight Loss (%): 3.07 (100° C.) %
[2]
  thermostability (compared with crystalline form C): better than that of the crystalline form C
[3]
  solubility property (compared with crystalline form C): better than that of the crystalline form C
[3]; water, 37 °C, thermodynamic from solid
  solubility: ≥ 240 µg/mL
[3]; water, 37 °C, thermodynamic from solid, 100 r/min, oscillated 1 h
  solubility at 1 h: 115 µg/mL (≈ 390 µM)
[3]; water, 37 °C, thermodynamic from solid, 100 r/min, oscillated 2 h
  solubility at 2 h: 137 µg/mL (≈ 465 µM)
[3]; water, 37 °C, thermodynamic from solid, 100 r/min, oscillated 18 h
  solubility at 18 h: 241 µg/mL (≈ 816 µM)

## CCOC(=O)C(c1ccccc1)C1N[C@H](C(=O)O)CS1 (single isomer, unassigned)
[1]; [5]
  Leukocyte Level, End of treatment: 8.98 ± 1.13*^Δ 10^9/L
  Leukocyte Level, Before modeling: 9.63 ± 0.99 10^9/L
  Leukocyte Level, After modeling: 3.46 ± 1.24 10^9/L
[1]
  effect on leucocyte level compared to the leucogen crystalline form C group: better effect
  leucocyte levels after treatment, compared to the model control group: significantly increased
[2]; 150° C.
  TGA Weight Loss (%): 0.46 (150° C.) %
[2]
  thermostability (compared with crystalline form C): better than that of the crystalline form C
[3]
  solubility property (compared with crystalline form C): better than that of the crystalline form C
[3]; listed as crystalline form B of leucogen
  solubility in water: ≥ 256 µg/mL
[3]; [6]
  Solubility in 1 h: 161.68 µg/mL (≈ 547 µM)
[3]; [7]
  Solubility in 2 h: 177.41 µg/mL (≈ 601 µM)
[3]; [8]
  Solubility in 18 h: 256.62 µg/mL (≈ 869 µM)

## CCOC(=O)C(c1ccccc1)C1N[C@H](C(=O)O)CS1 (single isomer, unassigned) [reference compound]
[1]; [9]
  Leukocyte Level, End of treatment: 6.05 ± 1.56* 10^9/L
  Leukocyte Level, Before modeling: 9.98 ± 1.56 10^9/L
  Leukocyte Level, After modeling: 3.32 ± 0.89 10^9/L
[1]
  leucocyte levels after treatment, compared to the model control group: significantly increased
[2]; 70° C.
  TGA Weight Loss (%): 3.54 (70° C.) %
[3]; [6]
  Solubility in 1 h: 112.64 µg/mL (≈ 381 µM)
[3]; [7]
  Solubility in 2 h: 133.16 µg/mL (≈ 451 µM)
[3]; [8]
  Solubility in 18 h: 227.89 µg/mL (≈ 772 µM)
